Laboratory results reported in US8895625B2, “Protective effect of thymoquinone in sepsis” (King Saud University, priority 2009, dated 2014).

Tests used:
[1] = test system: endotoxin (lipopolysaccharide, LPS Escherichia coli O111:B4) induced sepsis; assay: Endotoxin sepsis model (LPS challenge), survival by Kaplan-Meier; format: in vivo, mice; conditions: 4 h before 2 mg/kg LPS, followed 4 days, P<0.01
Experimental: 1.1 Endotoxin Sepsis Model (LPS Escherichia coli O111:B4)
Two groups of animals (ten mice each) weighing ˜25 g were treated intraperitoneally with 1 or 2 mg/kg (single dose) of thymoquinone prepared in 10% DMSO; a control group (treated with only 10% DMSO) was also simultaneously run. Four hours after thymoquinone treatment, all groups were challenged with 2 mg/kg endotoxin (lipopolysaccharide, LPS) prepared in normal saline. Mortality of groups was followed for 4 days, and survival (primary endpoint) was calculated using Kaplan-Meier analysis.

[2] = test system: E. coli (ATCC-25992); assay: Gram-negative bacteria sepsis model (E. coli challenge), survival by Kaplan-Meier; format: in vivo, mice; conditions: followed 2 days, P<0.01
Experimental: 1.2 Gram-Negative Bacteria Sepsis Model
Two groups of animals (twelve mice each) weighing ˜25 g were treated intraperitoneally with 0.75 or 1 mg/kg/day (for three days) of thymoquinone prepared in 10% DMSO; a control group (treated with only 10% DMSO) was also simultaneously run. Four hours after thymoquinone treatment, all groups were challenged with 2 μl/g E. coli (ATCC-25992, […] CFU/ml) prepared in normal saline. Mortality in treated groups was followed for 2 days, and survival (primary endpoint) was calculated using Kaplan-Meier analysis.

[3] = test system: sepsis caused by E. coli bacteria; assay: Biochemical blood analyses following E. coli administration; format: in vivo, mice; conditions: 6 h after E. coli administration
Experimental: (§1) In another set of experiments and after 6 h of E. coli administration, animals were lightly anesthetized with ether, and blood samples were collected, centrifuged and the resultant plasma were stored at −80° C. and used within 48 h. The levels of TNF-α, IL-1α, IL-2 and IL-10 were determined using an ELISA technique. Important biochemical parameters including blood serum creatinine, blood urea nitrogen, alanine transferase (ALT), albumin, and total lactate dehydrogenase (LDH) and creatinine kinase (CK) were also assessed in treated animals using commercially available kits according to the manufacturer's directions.

[4] = test system: sepsis induced by E. coli bacteria; assay: Immunological serum analyses (ELISA) following E. coli administration; format: in vivo, mice; conditions: 6 h after E. coli administration
Experimental: as §1

[5] = test system: parental and multidrug resistant tumor cells; conditions: cited from earlier work
[6] = PROWESS trial, compared to placebo; cited from earlier work
[7] = cited from earlier work

CC1=CC(=O)C(C(C)C)=CC1=O [thymoquinone, 2-isopropyl-5-methyl-1,4-benzoquinone]
protection efficacy against mortality in endotoxin induced sepsis ([1]; 1 mg/kg i.p. single dose): about 80% | protection efficacy against mortality in endotoxin induced sepsis ([1]; 2 mg/kg i.p. single dose): ~90% | protection efficacy against mortality in sepsis induced by Gram-negative bacteria ([2]; 0.75 mg/kg/day i.p. for three days): about 90% | protection efficacy against mortality in sepsis induced by Gram-negative bacteria ([2]; 1 mg/kg/day i.p. for three days): about 90% | blood urea nitrogen (kidney dysfunction biomarker) ([3]; FIG. 4A): Important reductions | serum creatinine (kidney dysfunction biomarker) ([3]; FIG. 4B): Important reductions | alanine transferase (liver dysfunction biomarker) ([3]; FIG. 4C): Important reductions | plasma albumin level ([3]; FIG. 4D): improvement in albumin level | total creatinine kinase (marker of tissue injury) ([3]; FIG. 4E): Important reductions | total lactate dehydrogenase (marker of tissue injury) ([3]; FIG. 4F): Important reductions | TNF-α level ([4]; FIG. 5A): Significant reductions | IL-1α level ([4]; FIG. 5B): Significant reductions | IL-2 level ([4]; FIG. 5C): Significant reductions | IL-10 level ([4]; FIG. 5D): Significant reductions | cytotoxicity to parental and multidrug resistant tumor cells [5]: cytotoxic

drotrecogin alfa
absolute decrease in mortality rate [6]: 6% | relative risk reduction (mortality) [6]: 19% | efficacy in sepsis patients ([7]; patients with a low risk of death or pediatric patients): not effective | 28-day mortality rate ([7]; subgroup with recent surgery and single-organ dysfunction, placebo 14.1%, P=0.03): 20.7%
